This is an account of results in US20210052633A1, “HYALURONIC ACID SYNTHESIS PROMOTER, METHOD FOR PROMOTING HYALURONIC ACID SYNTHESIS, AND CELL EVALUATION METHOD” (SEIKAGAKU CORPORATION, priority 2018, published 2021).

In this assay the test system is Human synovial cells derived from a patient with rheumatism (HFLS-RA). Kind of assay: Hyaluronic acid synthesis by synovial cells ([3H] glucosamine incorporation, HPLC fractionation by molecular weight). It counts as cell-based. On the procedure: Compound 1 or sodium hyaluronate (HA) (ARTZ Dispo (registered trademark) (manufactured by Seikagaku Corporation)) was mixed in a solution containing a phosphate buffer solution (GIBCO) and an α-MEM (GIBCO) concentrated medium. Further, each reagent was added and mixed in the resulting solution so that the final concentrations were as follows: 10% (v/v) fetal bovine serum (hereinafter FBS (MP Biomedicals)), 10 ng/mL recombinant human IL-1β/IL-1F2 (hereinafter IL-1β (R & D Systems)), 1% (w/v) penicillin/streptomycin (GIBCO), and 370 kBq/mL [^3H] glucosamine (Perkin Elmer). As a result, the following five solutions were obtained as test substances.
Human synovial cells derived from a patient with rheumatism (HFLS-RA, CELL APPLICATIONS, INC.) were subcultured and grown in a 175-cm^2 flask. In the cell culture, Basal medium (containing 10% (v/v) Growth supplement and 1% (w/v) penicillin/streptomycin) (manufactured by Cell Applications, Inc.) was used. Thereafter, the cells were seeded in a 6-well plate at 3.0×10^5 cells/2 mL/well and cultured for about 24 hours until confluence was reached. In the cell culture, α-MEM medium (containing 10% (v/v) FBS and 1% (w/v) penicillin/streptomycin) was used. After removing the culture supernatant, 2 mL of the test substance was added to the cells, and the cells were further cultured for 48 hours. The culture was performed at 37° C. in a CO2 incubator (5% (v/v) CO2). After completion of the culture, the culture supernatant was collected and cryopreserved in an ultra-low temperature freezer until measurement.
Since glucosamine is a constituent monosaccharide of hyaluronic acid, in hyaluronic acid newly synthesized in the cells after addition of the test substance, [^3H] glucosamine is incorporated. Therefore, hyaluronic acid in the collected culture supernatant was separated according to molecular weight using HPLC, and fractions were collected every 0.5 minutes using a fraction collector. To each of the collected fractions, 0.5 mL of a scintillation fluid was added and mixed. Thereafter, the radioactivity (dpm, disintegrations per minute) of each fraction was measured using a scintillation counter, and the radioactivity (the amount of [^3H] glucosamine incorporated into newly produced hyaluronic acid) was evaluated. The HPLC conditions are as follows.
Mobile phase: a solution of 5 mmol/L phosphate buffer solution (pH 6.0) with 0.82% (w/v) NaCl:acetonitrile=2:1 (v:v)
Column: OH pak SB-805 HQ column (Shodex (registered trademark)), column temperature: 35° C.
The hyaluronic acid standard solution was separated by HPLC, and UV absorption at a wavelength of 210 nm was measured. Fraction No. in which the peak top of the hyaluronic acid standard solution of each molecular weight is collected was calculated. As the hyaluronic acid standard solutions, Select-HATM 500 k (average molecular weight: 528,000), Select-HATM 1,000 k (average molecular weight: 1,076,000), and Select-HATM 2,500 k (average molecular weight: 2,420,000) were used.
The same procedure as in Example 1 was performed. Note that the culture supernatant was collected at respective time points (8, 24, 36, 48, and 72 hours) after adding the test substance to the cells.
A control solution, a 0.01% (w/v %) compound 1 solution, and a 0.01% (w/v %) sodium hyaluronate (HA) solution were prepared in the same manner as in Example 1. DF-Na (0.014 μg/mL, 0.14 μg/mL, 1.4 μg/mL, and 14 μg/mL) solutions were prepared by dissolving DF-Na in the control solution. Further, a HA+DF-Na mixed liquid was obtained by dissolving DF-Na (1.4 μg/mL) in the 0.01% (w/v %) sodium hyaluronate (HA) solution.
The same procedure as in Example 1 was performed.
The same procedure as in Example 1 was performed. Note that a column (OH pak SB-807 HQ column (Shodex (registered trademark)) having higher separability on the high molecular weight side than the HPLC column (OH pak SB-805 HQ column (Shodex (registered trademark)) was used.

Turning to “Aminoethanol-diclofenac-introduced sodium hyaluronate [compound 1]”, the “action of promoting the synthesis of high molecular weight hyaluronic acid” value (Example 1, HFLS-RA, 0.1% and 0.01% (w/v), 48 hours) is given as “has an action of promoting the synthesis of high molecular weight hyaluronic acid”. For the same substance, the “molecular weight peak of hyaluronic acid produced” value reads like this: (Example 1, HFLS-RA, IL-1β, 0.1% and 0.01% (w/v) test substance, 48 hours, SB-805 HQ column, control peak in the vicinity of 500,000) “high molecular weight exceeding the molecular weight of hyaluronic acid produced in the HA group”; (Example 3, HFLS-RA, 0.1% (w/v), 8, 24, 36, 48 and 72 hours, control in the vicinity of 500,000) “higher molecular weight than that in the HA groups”; (Example 4, HFLS-RA, 0.01% (w/v), 48 hours, control in the vicinity of 500,000) “more prominent than in the HA group”; (Example 5, synovial cells from three patients with rheumatism, 0.01% (w/v), 48 hours, SB-807 HQ column) ~2,400,000. The “content of hyaluronic acid over time” value (Example 3, HFLS-RA, 0.1% (w/v), 8 to 72 hours) is given as “increases over time”.
